Experimental data reported in patent USRE47826E1, “Drug delivery device for providing local analgesia, local anesthesia or nerve blockage” (INNOCOLL PHARMACEUTICALS LIMITED, priority 2007, dated 2020).
Structures can show the parent of a compound that is named as a salt. Where two headings read alike, the source gives them in different places.

Columns and labels:
[1] = Clinical study: bupivacaine plasma pharmacokinetics after sponge implantation; format: in vivo, human
Experimental: Patients received three 5 cm×5 cm (×0.5 cm thick) sponges; one sponge divided between areas adjacent the surgical site (in this case, adjacent the location of the now-removed uterus), one sponge divided and placed across the incision in the wall of the body cavity (in this case, the peritoneum) and the final sponge divided and placed between the sheath and skin around the incision. Each sponge contained 50 mg of bupivacaine hydrochloride, giving a total dose of 150 mg per patient.
The patients were scheduled to receive a hysterectomy in the absence of uterine adenocarcinoma, cervical cancer, leiomyosarcoma or the suspicion of these cancers.

plasma proteins = settings: cited from earlier work
[2] = neonates; cited from earlier work
[3] = in vivo; cited from earlier work
hysterectomy patients [4] = settings: cited from earlier work; for average postoperative morphine consumption: infiltration in deep and superficial layers of the wound after abdominal hysterectomy
[5] = system: Caesarian section patients; settings: […] or 0.5%, 20 ml, cited from earlier work
hysterectomy patients [6] = settings: cited from earlier work
[7] = mean, n=11, three sponges, 150 mg

CCCCN1CCCCC1C(=O)Nc1c(C)cccc1C (stereo not drawn) [Bupivacaine Hydrochloride]
tlag ([1]; efficacy population n=12, three sponges, 150 mg bupivacaine HCl, column head Mean, marked *): 0.000 h
Cmax ([1]; female, human, 150 mg, mean, n=12, three sponges, 150 mg bupivacaine HCl, read-out: Cmax): 225 ng/mL
AUC(0-inf) ([1]; female, human, mean, n=11, three sponges, 150 mg): 6360 ng·h/mL
AUC(0-t) ([1]; female, human, mean, n=12, three sponges, 150 mg): 6530 ng·h/mL
Tmax ([1]; female, human, n=12, three sponges, 150 mg, column head Mean, marked *): 12 h
t1/2z [1, 7]: 10.092 h
λz [1, 7]: 0.07084 h⁻¹

CCCCN1CCCCC1C(=O)Nc1c(C)cccc1C (stereo not drawn) [bupivacaine, Bupivacaine]
Cmax ([1]; female, human, 150 mg, after implantation of three bupivacaine-collagen sponges, 150 mg, read-out: highest individual Cmax): 440 ng/mL
Cmax ([1]; female, human, 150 mg, after implantation of three bupivacaine-collagen sponges, 150 mg, read-out: mean Cmax): 220 ng/mL
bound to plasma proteins (plasma proteins): about 95%
Reported half-lives [2]: about 8 hours
known systemic toxicity level [3]: 2 to 4 µg/mL
reduction in analgesic consumption (hysterectomy patients [4]; […] solution 45 ml infiltrated subfascially and subcutaneously, Hannibal): 50%
average postoperative morphine consumption (hysterectomy patients [4]; Klein et al 2000): 54 mg
average postoperative morphine consumption (hysterectomy patients [4]; Ng et al 2002): 44 mg
analgesia compared with no treatment (hysterectomy patients [4]; subcutaneous infiltration of solution, Cobby 1997, Victory 1995): no improvement in analgesia
duration of the effect on analgesic consumption ([5]; Caesarian section): 4 h
reduction in analgesic consumption ([5]; three studies on Caesarian section): 20-50%

CCCCN1CCCC[C@H]1C(=O)Nc1c(C)cccc1C [levobupivacaine]
incisional pain, deep pain and pain on coughing versus normal saline (hysterectomy patients [6]; […] infusion 12.5 mg/hr over 24 hours, 1-2 hours post surgery): significant reduction
Total ketobemidone (PCA narcotic) (hysterectomy patients [6]; […] infusion 12.5 mg/hr, 4-24 hour period): significantly reduced

CCN(CC)CC(=O)Nc1c(C)cccc1C [lidocaine]
reduction in pain scores and supplementary analgesic consumption (hysterectomy patients [4]; 500 mg aerosol subcutaneously, first 24 hours, Sinclair et al 1996): approximately 50%
